Measurements taken from ChEMBL document CHEMBL1201862, “PubChem BioAssay data set” (2004).
Values joined by “and” are separate entries in the source; they are usually repeats but may differ in a detail not shown here. Equal entries are not always repeated.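 Values below derive from 48-hour exposures of cells grown in 96-well plates, with endpoints linearly interpolated between the two concentrations bracketing the appropriate inhibition level. GI50: concentration for 50% inhibition of growth.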 Active and inactive are the calls of the source. No stated cut-off is given here; in the data, active = GI50 up to about 1.1 µM and inactive = higher.

What was measured:
Test in all cases: inhibition of tumour cell growth, NCI panel, 48 h
[1] = tested on: SF-539
[2] = tested on: OVCAR-8
[3] = tested on: HOP-62
[4] = tested on: HL-60
[5] = tested on: HCC 2998
[6] = tested on: IGROV-1
[7] = tested on: A549
[8] = tested on: HOP-92
[9] = tested on: NCI-H522
[10] = tested on: TK-10
[11] = tested on: NCI-H226
[12] = tested on: UACC-62
[13] = tested on: LXFL 529
[14] = tested on: KM12
[15] = tested on: M19-MEL
[16] = tested on: DLD-1
[17] = tested on: ACHN
[18] = tested on: SF-268
[19] = tested on: OVCAR-3
[20] = tested on: RPMI-8226
[21] = tested on: SK-MEL-5
[22] = tested on: SF-295
[23] = tested on: U-251
[24] = tested on: CCRF-CEM
[25] = tested on: HOP-18
[26] = tested on: UACC-257
[27] = tested on: SW-620
[28] = tested on: MOLT-4
[29] = tested on: SK-OV-3
[30] = tested on: SNB-75
[31] = tested on: K562
[32] = tested on: NCI-H23
[33] = tested on: SNB-19
[34] = tested on: COLO 205
[35] = tested on: HT-29
[36] = tested on: SR
[37] = tested on: NCI-H460
[38] = tested on: UO-31
[39] = tested on: SK-MEL-28
[40] = tested on: HCT-116
[41] = tested on: M14
[42] = tested on: A498
[43] = tested on: OVCAR-5
[44] = tested on: 786-0
[45] = tested on: KM-20L2
[46] = tested on: LOX IMVI
[47] = tested on: DMS-273
[48] = tested on: OVCAR-4
[49] = tested on: SN12C
[50] = tested on: RXF 393
[51] = tested on: SNB-78
[52] = tested on: HCT-15
[53] = tested on: DMS-114
[54] = tested on: EKVX
[55] = tested on: Malme-3M
[56] = tested on: BT-549

Q: For `Nc1c(C(=O)N/N=C/c2ccccc2)sc(=S)n1-c1ccccc1`, which GI50 [1] is on record?
A: 70 µM (inactive)

Q: What about the GI50 [2] of the same molecule?
A: > 100 µM (inactive)

Q: And the GI50 [3]?
A: > 100 µM (inactive)

Q: What about the GI50 [4] of the same molecule?
A: > 100 µM (inactive)

Q: What about the GI50 [5] of the same molecule?
A: > 100 µM (inactive)

Q: What about the GI50 [6] of the same molecule?
A: > 100 µM (inactive)

Q: What about the GI50 [7] of the same molecule?
A: > 100 µM (inactive)

Q: What about the GI50 [8] of the same molecule?
A: > 100 µM (inactive)

Q: And the GI50 [9]?
A: > 100 µM (inactive)

Q: And the GI50 [10]?
A: > 100 µM (inactive)

Q: And the GI50 [11]?
A: > 100 µM (inactive)

Q: And the GI50 [12]?
A: > 100 µM (inactive)

Q: And the GI50 [13]?
A: > 100 µM (inactive)

Q: And the GI50 [14]?
A: > 100 µM (inactive)

Q: What about the GI50 [15] of the same molecule?
A: > 100 µM (inactive)

Q: What about the GI50 [16] of the same molecule?
A: > 100 µM (inactive)

Q: And the GI50 [17]?
A: > 100 µM (inactive)

Q: What about the GI50 [18] of the same molecule?
A: > 100 µM (inactive)

Q: What about the GI50 [19] of the same molecule?
A: > 100 µM (inactive)

Q: And the GI50 [20]?
A: > 100 µM (inactive)

Q: What about the GI50 [21] of the same molecule?
A: > 100 µM (inactive)

Q: And the GI50 [22]?
A: > 100 µM (inactive)

Q: What about the GI50 [23] of the same molecule?
A: > 100 µM (inactive)

Q: What about the GI50 [24] of the same molecule?
A: > 100 µM (inactive)

Q: And the GI50 [25]?
A: > 100 µM (inactive)

Q: And the GI50 [26]?
A: > 100 µM (inactive)

Q: What about the GI50 [27] of the same molecule?
A: > 100 µM (inactive)

Q: And the GI50 [28]?
A: > 100 µM (inactive)

Q: What about the GI50 [29] of the same molecule?
A: > 100 µM (inactive)

Q: And the GI50 [30]?
A: 8.71 µM (inactive)

Q: What about the GI50 [31] of the same molecule?
A: 3.38 µM (inactive)

Q: What about the GI50 [32] of the same molecule?
A: > 100 µM (inactive)

Q: And the GI50 [33]?
A: > 100 µM (inactive)

Q: And the GI50 [34]?
A: > 100 µM (inactive)

Q: What about the GI50 [35] of the same molecule?
A: > 100 µM (inactive)

Q: And the GI50 [36]?
A: > 100 µM (inactive)

Q: What about the GI50 [37] of the same molecule?
A: > 100 µM (inactive)

Q: What about the GI50 [38] of the same molecule?
A: > 100 µM (inactive)

Q: What about the GI50 [39] of the same molecule?
A: > 100 µM (inactive)

Q: And the GI50 [40]?
A: > 100 µM (inactive)

Q: `COC(=O)/C(C#N)=C1\NC(=O)c2ccccc21` was tested. Which GI50 [41] did it give?
A: > 100 µM (inactive)

Q: And the GI50 [1]?
A: > 100 µM (inactive)

Q: And the GI50 [2]?
A: > 100 µM (inactive)

Q: What about the GI50 [3] of the same molecule?
A: > 100 µM (inactive)

Q: What about the GI50 [4] of the same molecule?
A: > 100 µM (inactive)

Q: And the GI50 [42]?
A: > 100 µM (inactive)

Q: And the GI50 [5]?
A: > 100 µM (inactive)

Q: What about the GI50 [6] of the same molecule?
A: > 100 µM (inactive)

Q: And the GI50 [7]?
A: > 100 µM (inactive)

Q: And the GI50 [8]?
A: > 100 µM (inactive)

Q: What about the GI50 [9] of the same molecule?
A: > 100 µM (inactive)

Q: And the GI50 [43]?
A: > 100 µM (inactive)

Q: And the GI50 [44]?
A: > 100 µM (inactive)

Q: And the GI50 [10]?
A: > 100 µM (inactive)

Q: And the GI50 [11]?
A: > 100 µM (inactive)

Q: And the GI50 [12]?
A: > 100 µM (inactive)

Q: And the GI50 [45]?
A: > 100 µM (inactive)

Q: And the GI50 [46]?
A: > 100 µM (inactive)

Q: And the GI50 [13]?
A: > 100 µM (inactive)

Q: And the GI50 [14]?
A: > 100 µM (inactive)

Q: What about the GI50 [15] of the same molecule?
A: > 100 µM (inactive)

Q: What about the GI50 [16] of the same molecule?
A: > 100 µM (inactive)

Q: And the GI50 [47]?
A: > 100 µM (inactive)

Q: What about the GI50 [48] of the same molecule?
A: > 100 µM (inactive)

Q: What about the GI50 [49] of the same molecule?
A: > 100 µM (inactive)

Q: What about the GI50 [17] of the same molecule?
A: > 100 µM (inactive)

Q: And the GI50 [18]?
A: > 100 µM (inactive)

Q: And the GI50 [50]?
A: > 100 µM (inactive)

Q: What about the GI50 [19] of the same molecule?
A: > 100 µM (inactive)

Q: And the GI50 [51]?
A: > 100 µM (inactive)

Q: And the GI50 [52]?
A: > 100 µM

Q: And the GI50 [20]?
A: > 100 µM (inactive)

Q: What about the GI50 [21] of the same molecule?
A: > 100 µM (inactive)

Q: What about the GI50 [22] of the same molecule?
A: > 100 µM (inactive)

Q: What about the GI50 [23] of the same molecule?
A: > 100 µM (inactive)

Q: And the GI50 [24]?
A: > 100 µM (inactive)

Q: What about the GI50 [25] of the same molecule?
A: > 100 µM (inactive)

Q: And the GI50 [26]?
A: > 100 µM (inactive)

Q: And the GI50 [27]?
A: > 100 µM (inactive)

Q: What about the GI50 [28] of the same molecule?
A: > 100 µM (inactive)

Q: What about the GI50 [29] of the same molecule?
A: > 100 µM (inactive)

Q: What about the GI50 [30] of the same molecule?
A: 2.4 µM (inactive)

Q: What about the GI50 [31] of the same molecule?
A: > 100 µM (inactive)

Q: What about the GI50 [32] of the same molecule?
A: > 100 µM (inactive)

Q: What about the GI50 [53] of the same molecule?
A: > 100 µM (inactive)

Q: What about the GI50 [33] of the same molecule?
A: > 100 µM (inactive)

Q: And the GI50 [34]?
A: > 100 µM (inactive)

Q: What about the GI50 [35] of the same molecule?
A: > 100 µM (inactive)

Q: What about the GI50 [54] of the same molecule?
A: > 100 µM (inactive)

Q: And the GI50 [36]?
A: > 100 µM (inactive)

Q: And the GI50 [55]?
A: > 100 µM (inactive)

Q: And the GI50 [37]?
A: > 100 µM (inactive)

Q: And the GI50 [38]?
A: > 100 µM (inactive)

Q: What about the GI50 [39] of the same molecule?
A: > 100 µM (inactive)

Q: And the GI50 [40]?
A: > 100 µM (inactive)

Q: Which results are given for `Oc1cccc2cccnc12` [OXYQUINOLINE]?
A: GI50 [4]: 251 nM (active) and 457 nM (active); GI50 [6]: 3.14 µM (inactive) and 4.5 µM (inactive); GI50 [45]: 1.38 µM (inactive); GI50 [13]: 0.605 µM (active); GI50 [16]: 1.47 µM (inactive); GI50 [47]: 2.53 µM (inactive); GI50 [20]: 0.578 µM (active); GI50 [21]: 8.69 µM (inactive) and 4.93 µM (inactive); GI50 [25]: 14.8 µM (inactive); GI50 [36]: 0.453 µM (active); GI50 [56]: > 80.2 µM (inactive)
